According to US20060116325A1, “Methods and compositions for inhibiting hiv-coreceptor interactions” (priority 2001, published 2006):

Columns and labels:
HIV-1JRFL = HIV-1JRFL infection of monocyte-derived macrophages, p24 ELISA; assay type: cell-based; settings: for concentration at which significant inhibition of infection was exhibited (as low as): HIV-1JRFL, monocyte-derived macrophages; for inhibition of HIV-1JRFL infection of monocyte-derived macrophages (p24): peptide 1 hr before virus, p24 after 72 hr, FIG. 3
Protocol: Monocyte-derived macrophages were treated with the designated concentrations of the indicated peptide for a period of 1 hr prior to addition of HIV-1JRFL. After 2 hr, cells were washed, and viral replication was determined after 72 hr by p24 analysis. Results are representative of 4 independent experiments.
(§1) PBMCs were obtained from whole blood of normal donors and isolated by Ficoll-Paque Plus (Pharmacia Biotech, Piscataway, N.J.) density gradient centrifugation, and plated at a cell density of 2×10^6 cells/ml. Monocyte-derived macrophages (MDM) were generated from adherent human peripheral blood mononuclear cells by culture for 7 days with M-CSF (100 ng/ml). Cultures were maintained in RPMI-1640 medium (Life Technologies, Rockville, Md.) supplemented with 10% heat-inactivated endotoxin-free FCS (Hyclone, Logan, Utah), 10 μg/ml gentamicin, and 1 mM glutamine. Cells were treated with designated concentrations of the exemplary peptides 15K or 15D, and after 1 hr cells were infected with HIV-1IIIB (T cell tropic) or HIV-1JRFL (monocyte tropic) at an multiplicity of infection (MOI) of 0.1. After 2 hr, cells were washed, and cultured for additional 48-72 hr, followed by analysis of HIV replication as determined by quantification of accumulated p24 in the supernatant. The production of p24 was determined by conventional sandwich ELISA, using ELISA plates pre-coated with capture anti-p24 antibodies provided by the AIDS Vaccine Program (SAIC Frederick, NCI-FCRDC, Frederick, Md.). The captured p24 antigen was detected using rabbit anti-HIV-1 anti-p24 antibody, and a secondary goat anti-rabbit IgG (peroxidase-labeled) antibody. The captured p24 protein was detected using a 3,3′,5,5′-tetramethylbenzidine and hydrogen peroxide detection system (KPL Laboratories, Gaithersburg, Md.). The reaction was read spectrophotometrically at 450 nm. No cytotoxicity was detectable following treatment of PBMC with the peptides even at a concentration of 100 μg/ml.
The results described in the preceding Examples indicate that the 15K and 15D peptides effectively block the ability of CCR5 to serve as a receptor to mediate chemotactic responses. Additional experiments were thus carried out to determine the capacity of these peptides to inhibit coreceptor activity mediating cellular entry and infection by HIV-1JRFL (a monocyte-tropic HIV strain), using peripheral blood monocyte-derived macrophages.

CCR5 = CCR5 (Homo sapiens, UniProt P51681); test: Chemotaxis of HEK-CCR5 cells to RANTES (microchemotaxis chamber); assay type: cell-based; set-up: expressed in transfected cells; host or cells: HEK-293; settings: for inhibition of RANTES-directed chemotactic response / induction of chemotaxis by peptide alone: HEK-CCR5 cells; for inhibition of RANTES-directed chemotactic response: RANTES 100 ng/ml, 3 hr; for induction of chemotaxis by peptide alone: tested at any concentration
CCR5, sequence (P51681 whole entry): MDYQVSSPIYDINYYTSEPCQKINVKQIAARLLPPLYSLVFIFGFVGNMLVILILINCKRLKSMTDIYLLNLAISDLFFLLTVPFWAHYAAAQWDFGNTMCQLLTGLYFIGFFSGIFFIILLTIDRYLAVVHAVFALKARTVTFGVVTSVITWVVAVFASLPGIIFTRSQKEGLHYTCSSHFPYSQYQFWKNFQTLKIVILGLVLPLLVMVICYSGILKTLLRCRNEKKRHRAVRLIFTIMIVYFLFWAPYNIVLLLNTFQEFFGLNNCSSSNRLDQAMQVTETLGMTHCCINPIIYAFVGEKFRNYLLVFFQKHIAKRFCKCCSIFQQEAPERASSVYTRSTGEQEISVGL
Protocol: Migration of HEK-CCR5 cells to RANTES alone, or the combination of RANTES and designated concentrations of either 15K or 15D peptides, were determined in micro-chemotaxis chambers. […] The results are representative of three independent experiments. *p<0.05.
Chemotaxis assays for HEK-293 cells transfected with CCRS was performed as previously described (Howard et al., J. Biol. Chem. 274:16228-16234, 1999, incorporated herein by reference). Briefly, the chemokine RANTES, diluted in binding medium to 100 ng/ml, was placed in the lower wells of a microchemotaxis chamber. Polycarbonate membrane pretreated with rat tail collagen type 1 was placed over the chemokine solution. The cells (1×10^6/ml) were suspended in binding medium along with the exemplary peptides 15D or 15K at designated concentrations and placed in the upper wells of the chamber. After incubation for 3 hr the membrane was removed, stained using a Diff-Quik kit (Trends Scientific, Kalamazoo, Mich.) and counted. The results are expressed as the “chemotaxis index”, which represents the ratio of the number of cells in high powered field in test versus control samples.
To achieve this goal, the capacity of these peptides to inhibit the chemotactic response of HEK-CCR5 cells to a cognate ligand of CCR5 receptors, the chemokine RANTES, was assayed.

CXCR4 = CXCR4 (Homo sapiens, UniProt P61073); test: Competition with radiolabeled SDF-1α binding to HEK-CXCR4 cells; set-up: host or cells: CEMx174 (174xCEM); settings: high concentrations (e.g., 100 μM) of peptide required, FIG. 1
CXCR4, sequence (P61073 whole entry): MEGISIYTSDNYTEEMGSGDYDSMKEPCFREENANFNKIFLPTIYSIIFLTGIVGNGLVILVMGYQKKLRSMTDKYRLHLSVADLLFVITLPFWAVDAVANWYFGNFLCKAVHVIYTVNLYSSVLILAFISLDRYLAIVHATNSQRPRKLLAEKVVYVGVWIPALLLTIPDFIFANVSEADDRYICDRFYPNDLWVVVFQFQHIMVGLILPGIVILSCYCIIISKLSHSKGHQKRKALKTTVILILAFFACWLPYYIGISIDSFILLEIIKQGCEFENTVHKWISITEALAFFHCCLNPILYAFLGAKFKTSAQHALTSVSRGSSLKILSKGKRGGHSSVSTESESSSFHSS
Protocol: Binding assays were performed with HEK-CCR5 or HEK CXCR4 in triplicate by adding unlabeled competitor (anti-coreceptor binding peptide or control chemokine) and radiolabeled chemokine, 0.2 ng/ml (^125I-MIP-1β or SDF-1α, specific activity 2000 Ci/mmol, NEN Life Science Products) to a cell suspension (4×10^5 cells in 200 μl) in RPMI 1640 supplemented with 1% bovine serum albumin and 25 mM HEPES pH 8.0 (binding medium). Cells were then incubated at 22° C. for 40 min with continuous rotation. After incubation cells were transferred to the tubes containing 800 μl of 10% sucrose in PBS and harvested by centrifugation. The supernatant was aspirated and the cell-associated radioactivity was measured using a 1272 Wallac gamma counter. […] After incubation cells were transferred to the tubes containing 800 μl of 10% sucrose in PBS and harvested by centrifugation, the supematant was aspirated and the cell-associated radioactivity was measured using a 1272 Wallac gamma counter. The data were analyzed by nonlinear regression using the computer program GraphPad Prizm 3.0.
Considering that the 15K and 15D peptides were designed in part based on their structural similarity to corresponding chemokine fragments, the binding activity of these peptides for CCR5 and/or CXCR4 receptors, and corresponding anti-coreceptor binding activity against chemokines, was assessed.

HIV-1IIIB = HIV-1IIIB infection of PBMC, p24 ELISA; assay type: cell-based; settings: for concentration at which significant inhibition of HIV-1 infection was detected (as low as): HIV-1IIIB, PBMC; for inhibition of T cell-tropic HIV-1 infection of PBMCs (p24): peptide 1 hr before HIV-1IIIB, p24 after 48 hr, FIG. 4
Protocol: Peripheral blood mononuclear cells were treated with designated concentrations of peptide for a period of 1 hr prior to addition of HIV-1IIIB. After 2 hr, cells were washed, and viral replication was determined after 48 hr by analysis of p24 levels. Results are representative of 4 independent experiments.
as §1
In view of the foregoing binding inhibition studies, and considering the homology between the 15K and 15D peptides and the CXCR4 ligand SDF-1α, it was further undertaken to determine the capacity of the synthetic peptides to inhibit CXCR4 co-receptor function. In particular, experiments were carried out to assess the ability of 15K or 15D to alter the infection of PBMCs with the T cell-tropic […] strain. […] Significant inhibition of HIV-1 infection was detected with concentrations of peptides as low as 10 ng/ml.

| Substance | concentration at which significant inhibition of infection was exhibited (as low as) (HIV-1JRFL) | inhibition of HIV-1JRFL infection of monocyte-derived macrophages (p24) (HIV-1JRFL) | inhibitory activity on chemotaxis, one peptide compared with the other (CCR5; 15D versus 15K, FIG. 2) | inhibition of RANTES-directed chemotactic response (CCR5; FIG. 2) | induction of chemotaxis by peptide alone (CCR5) | inhibition of radiolabeled SDF-1α binding to cells expressing CXCR4 (CXCR4) | concentration at which significant inhibition of HIV-1 infection was detected (as low as) (HIV-1IIIB) | inhibition of T cell-tropic HIV-1 infection of PBMCs (p24) (HIV-1IIIB) | anti-HIV-1 activity of 15D in comparison with 15K (HIV-1IIIB; some experiments, data not shown, virus strain not stated) |
| --- | --- | --- | --- | --- | --- | --- | --- | --- | --- |
| I R K A H C N I S R A D W N D [Peptide 15D] | 10 ng/mL | significantly reduced monocyte lineage target cell infection | consistently exhibited greater inhibitory activity | completely blocked | did not induce detectable chemotaxis | significantly inhibit chemokine binding | 10 ng/mL | significantly reduced HIV-1 infection | higher anti-HIV-1 activity |
| IRKAHCNISRAKWND [Peptide 15K] | 10 ng/mL | significantly reduced monocyte lineage target cell infection |  | completely blocked | did not induce detectable chemotaxis | significantly inhibit chemokine binding | 10 ng/mL | significantly reduced HIV-1 infection |  |
